Assay results: patent US6069167A, “Use of antioxidant agents to treat cholestatic liver disease” (priority 1997, dated 2000)

Columns and labels:
liver = test: Histology of the liver in the in vivo reversible hepatic injury model; parameters: species or system rat
Excerpt: The instant invention also provides for an in vivo reversible hepatic injury model animal model, preferably a rodent model, most preferably a rat model. The animal can be dosed with any injurious bile acid or analogs thereof Suitable injurious bile acids include conjugates of chenodeoxycholic acid and lithocholic acid. A particularly suitable injurious bile acid analog is taurochenodeoxycholic acid. The injurious bile acid or analog can be administered by any suitable means, such as injection, oral or rectal administration. The injurious bile acid or analog thereof can be conveniently administered intravenously, particularly intravenous administration in the tail vein. The time of administration should be for less than 10 minutes, preferably approximately 1 to 2 minutes.
These histological findings are similar to those reported in a recently described rat model of continuous jugular vein infusion of TCDC at a rate of 0.4 to 0.6 μmol/min/100 gram over 60 minutes^31. […] However, the model of the instant invention produced similar results at half the TCDC dosages of the continuous TCDC infusion model, and allows for rapid, convenient infusion of TCDC.
Based on these biochemical and histological findings, a suitable time point for the embodiment of the instant invention using TCDC as the toxic bile acid was the 4 hour, 10 μmol/100 gram weight dose.

TCDC hepatic toxicity = format: in vivo, male Sprague-Dawley rats; conditions: rat, in vivo
Excerpt: Young adult male Sprague-Dawley rats (150-180 gram weight) purchased from Sasco, Inc. (Omaha, Nebr.) were fed Purina Lab Chow (Ralston Purina Co., Chicago, Ill.) ad libitum for 2-3 weeks and housed in polyethylene cages with stainless steel tops on a 12-hour light-dark cycle. All rats received humane care in compliance with the guidelines of the Animal Use in Research Committee of the University of Colorado Health Sciences Center. […] TCDC is a conjugate of the bile acid most implicated in cholestatic liver injury9,11,12. TCDC was solubilized in 5% dextrose, 10% BSA, and 0.45% normal saline. TCDC was administered while rats were under light methoxyflurane anesthesia as an intravenous bolus of the desired dose in 1 to 2 minutes through the tail vein. TCDC dosing was performed between 7 and 9 am. […] Rats were divided into two treatment groups. One group was pretreated with parenteral Vitamin E (all-rac-alpha tocopherol, […], Hoffmann-LaRoche,Nutley, N.J.). The other group was not pretreated. These rats then received either vehicle or TCDC (10 μmol/[…]) by tail vein injection (as described in Example 1). […] All i.p. injections were administered under light methoxyflurane anesthesia. Following the vitamin E or saline injections, rats were randomly assigned to receive a tail vein bolus injection of either TCDC or vehicle. Rats were sacrificed four hours later and serum was analyzed for AST, ALT, total bilirubin and alkaline phosphatase. […] The serum alpha tocopherol:total lipids ratio (mg/gm) was calculated as an additional index of vitamin E status^41.

[1] = test system: lactate dehydrogenase (LDH); test: Interference of TCDC with the LDH assay (total LDH activity of hepatocyte lysate); format: cell-based, rat; conditions: 10×10^6 hepatocytes incubated 4 hours with or without TCDC at 1000 μmol/L
Protocol: Adult male Sprague Dawley rats (250-275 grams body weight) were obtained from Sasco, Inc. (Omaha, Nebr.). They were maintained on Purina lab chow (Ralston Purina Co., Chicago, Ill.) for 2-3 weeks and housed in polyethylene cages with stainless steel tops on a […]. All rats received humane care in compliance with the guidelines of the Committee on Laboratory Animal Research of the University of Colorado Health Sciences Center. Hepatocytes were isolated using a collagenase reperfusion technique that was a modification^24 of the method of Berry and Friend^25. After administration of intraperitoneal anesthesia (50 mg/kg body weight), each rat liver was perfused in situ via the portal vein with Krebs-Henseleit buffer containing a mixture of 17 amino acids as previously described^24 under a 9% O2 /5% CO2 /86% N2 atmosphere until perfusate was blood free (after approximately 25-50 ml of perfusate infusion). […] Initial cell viability measured by the trypan blue exclusion method^43 was above 95%. […]
Hepatocyte injury was assessed by the percentage of total cellular lactate dehydrogenase (LDH) release into the buffer medium. LDH was analyzed by measuring the rate of decrease in absorbance at 340 nm during reduction of pyruvate using a diagnostic kit supplied by Sigma Diagnostics (St Louis, Mo.). […]

bile flow = conditions: continuous jugular vein TCDC infusion 0.4 to 0.6 μmol/min/100 gram over 60 minutes; cited from earlier work

Total hepatocyte LDH activity in the lysate [1]: 90-96 units
SMILES: C[C@H](CCC(=O)NCCS(=O)(=O)O)[C@H]1CC[C@H]2[C@@H]3[C@H](O)C[C@@H]4C[C@H](O)CC[C@]4(C)[C@H]3CC[C@]12C [TCDC, taurochenodeoxycholic acid]
Histology of the liver (liver; 4 h after TCDC 10 μmol/100 gram weight): mild hepatocyte swelling, variable necrosis of individual hepatocytes, mild portal tract infiltration with lymphocytes without bile duct injury, and accumulation of smooth eosinophilic globules
Reversibility of hepatocyte injury (liver; TCDC 10 μmol/100 gram weight, 24 h): much reduced by 24 hours after injection
Predominant histological findings of the in vivo model (liver; rat model, TCDC): Hepatocyte swelling and a mild degree of cellular necrosis
ALT (TCDC hepatic toxicity): 1111 ± 213 IU/L
AST (TCDC hepatic toxicity): 2472 ± 505 IU/L
Bilirubin (TCDC hepatic toxicity): 0.4 ± 0.1 mg/dL
Bile flow and hepatic bile secretion (bile flow): marked reduction in bile flow and of hepatic bile secretion
